Results taken from patent publication US20030095990A1, “Microemulsion facial washes comprising specific oils” (Unilever Home & Personal Care USA, Division of Conopco, Inc., priority 2001, published 2003).

Key:
[1] = Cognis spreading area over fixed time, converted using oleyl oleate as control; cited from earlier work
[2] = Oil spreading time on human inner forearm (spreadability factor S^R); type: physicochemical; settings: 4 μL oil, 12 mm×8 mm ellipse on inner forearm; for Relative Spreading Time (spreadability factor S^R): normalized to oleyl oleate, data of present work; for spreading time: two panelists in duplicate
Method: As for oil “spreadability factor”, S^R, a semi-quantitative assay was developed by applicants to determine the spreading time for the different oils that have the potential to be used in microemulsions. First, an elliptic shape with 12 mm×8 mm diameters was marked on the inner forearm of a panelist. Because of the textural orientation of the skin, the spreading trace is usually in an elliptic shape. […] According to the test, 4 μL of the tested oil was dosed in the center of the area. The time when the oil arrived at the marked outline was recorded as the spreading time of the oil. The data were obtained on two panelists with duplicate tests for each oil. The average values were taken as the results. The spreading time of oleyl oleate was than used to normalize the measured values. For example, the spreading time for oleyl oleate is 1.3+0.03 minutes for IPM so the relative spreading time for IPM is 0.5/1.3=0.4. Thus, the spreadability factor, S^R, is ratio of spread rate of selected oil (measured in minutes) to spread rate of oleyl oleate (also measured in minutes).
Using this test, examples of oil spreading times are noted below: […]

[3] = Viscosity, ARES Rheometer, strain controlled mode; type: physicochemical; settings: 20-23° C.
Text: The ARES Rheometer manufactured by Rheometric Scientific™ was used for measuring viscosities in strain controlled mode. Fluid behavior of the microemulsions is different from conventional skin cleansers. They are Newtonian liquids, so the viscosity is constant with varying shear rate or time. […] As noted, the viscosities of the two microemulsions are much lower than for the competitors' liquid cleansers. However, low viscosity may ease penetration into crevices. Make-up removal efficacy may be directly related to product viscosity, i.e., an increased viscosity of a product caused a reduction in make-up removal. […] Pond's Clear Solutions® Deep Pore Foaming cleanser has an even lower viscosity than the microemulsions. It is packaged in a bottle with aeration upon dispensing, providing a thick and creamy foam. Microemulsions can be used as a cleansing milk or impregnated onto a non-woven.
To simulate the effect of sebum dissolution in washing process on the viscosity of the microemulsion, 2% model sebum was dissolved in microemulsion #1. From the results, one can expect that the good properties of the microemulsion, i.e., solvency and low viscosity, will be maintained during the washing process.

| Compound | Relative Spreading Time [1] | Relative Spreading Time (spreadability factor S^R) [2] | other results |
| --- | --- | --- | --- |
| CCCCCCCC/C=C\CCCCCCCCCCCC(=O)OCCCCCCCC/C=C\CCCCCCCC [Oleyl Eructate] | 1.2 |  |  |
| CCCCCCCCOCCCCCCCC [Cetiol ® OE: Di-N-Octyl Ether, Di-N-Octyl Ether] |  | 0.2 |  |
| CCCCCCCC/C=C\CCCCCCCCOC(=O)CCCCCCC/C=C\CCCCCCCC [Oleyl Oleate, reference compound] | 1 | 1 | spreading time [2]: 1.3 ± 0.03 min |
| CCCCCCCCCCCCCCCC(=O)OC(C)C [Isopropanol Palmitate] |  | 0.7 |  |
| Dioctyl Cyclohexane | 0.5 |  |  |
| CC(C)CCCC(C)CCCC(C)CCCCC(C)CCCC(C)CCCC(C)C (centres unmarked) [Squalane] |  | 1.0 |  |
| CC(C)=CCC/C(C)=C/CC/C(C)=C/CC/C=C(\C)CC/C=C(\C)CCC=C(C)C [Squalene] |  | 0.8 |  |
| CCCCCCCCCCCCCC(=O)OC(C)C [Isopropanol Myristrate] | 0.4 | 0.4 | spreading time [2]: 0.5 min |
| CCCCCCCC(=O)OCC(COC(=O)CCCCCCC)OC(=O)CCCCCCC [Glycerol Tricaprylate] |  | 0.9 |  |
| CCCCCCCCCCC(CO)CCCCCCCC (centres unmarked) [Octyl Dodecanol] | 0.7 |  |  |
| Pentahydrosqualene |  | 2.5 |  |
| O [Water] |  |  | Viscosity at Shear Rate 10 s^−1 [3]: 1 mPa-s |
| CCCCCCCC/C=C\CCCCCCCCO [Oleyl Alcohol] | 0.6 |  |  |
